Experimental data from DBAASP.
Values after ≈ are worked out from the molar mass of the structure shown. Values joined by “and” are separate entries in the source; they are usually repeats but may differ in a detail not shown here. Equal entries are not always repeated.

What was measured:
Assay in all cases: ≥ marks a high value that may be exact or a test limit, other limits are often not marked, values filed in µg/mL are converted to µM
[1] = test system: Acinetobacter baumannii ATCC 17978D-5
[2] = test system: Enterococcus faecium ATCC 700221
[3] = test system: Klebsiella aerogenes ATCC 13048
[4] = test system: Streptococcus pneumoniae ATCC 49619
[5] = test system: Staphylococcus aureus ATCC 33591
[6] = test system: Pseudomonas aeruginosa ATCC 19660
[7] = test system: Staphylococcus epidermidis ATCC 51625
[8] = test system: Pseudomonas aeruginosa ATCC 27853
[9] = test system: Enterococcus faecalis ATCC 29212
[10] = test system: Pseudomonas aeruginosa Z61
[11] = test system: Escherichia coli UB1005
[12] = test system: Listeria monocytogenes NCTC 7973
[13] = test system: Burkholderia cepacia ATCC 25416
[14] = test system: Salmonella enterica subsp. enterica serovar Typhimurium ATCC 14028s
[15] = test system: Staphylococcus aureus K147
[16] = test system: Staphylococcus aureus ATCC 25923
[17] = test system: Pseudomonas aeruginosa H374
[18] = test system: Acinetobacter calcoaceticus ATCC 23055
[19] = test system: Pseudomonas aeruginosa K799
[20] = test system: Enterobacter cloacae ATCC 13047
[21] = test system: Escherichia coli O111:B4
[22] = test system: Streptococcus pyogenes ATCC 19615
[23] = test system: Pseudomonas aeruginosa H103
[24] = test system: Candida albicans CAN105
[25] = test system: Staphylococcus epidermidis
[26] = test system: Pseudomonas aeruginosa H744
[27] = test system: Staphylococcus haemolyticus
[28] = test system: Corynebacterium xerosis
[29] = test system: Staphylococcus aureus SAP 0017
[30] = test system: Stenotrophomonas maltophilia ATCC 13637
[31] = test system: Pseudomonas aeruginosa H187
[32] = test system: Pseudomonas aeruginosa H547
[33] = test system: Escherichia coli ATCC 25922
[34] = test system: Escherichia coli CVCC 1515
[35] = test system: Bacillus subtilis ATCC 11060
[36] = test system: Escherichia coli K88
[37] = test system: Escherichia coli ER2566
[38] = test system: Pseudomonas aeruginosa ATCC 21630
[39] = test system: Salmonella enterica subsp. enterica serovar Typhimurium ATCC 14028
[40] = test system: Escherichia coli 078
[41] = test system: Salmonella enterica subsp. enterica serovar Typhimurium C77-31
[42] = test system: Pseudomonas aeruginosa ATCC 21625
[43] = test system: Escherichia coli CMCC 44102
[44] = test system: Salmonella enterica subsp. enterica serovar Pullorum C79-13
[45] = test system: Staphylococcus aureus ATCC 29213
[46] = test system: Staphylococcus epidermidis ATCC 12228
[47] = test system: Pseudomonas aeruginosa ATCC 10419
[48] = test system: Streptococcus sanguinis ATCC 10556
[49] = test system: Staphylococcus aureus
[50] = test system: Candida albicans ATCC 5314
[51] = test system: Streptococcus mutans ATCC UA159

**Q.** Which MIC [1] does the source give for CC[C@H](C)[C@H](NC(=O)[C@H](CCCCN)NC(=O)[C@@H]1CCCN1C(=O)[C@@H]1CCCN1C(=O)[C@H](CC(C)C)NC(=O)[C@H](CCCCN)NC(=O)[C@@H]1CCCN1C(=O)[C@@H]1CCCN1C(=O)[C@H](Cc1ccccc1)NC(=O)[C@H](Cc1ccccc1)NC(=O)[C@@H]1CCCN1C(=O)[C@@H]1CCCN1C(=O)[C@@H]1CCCN1C(=O)[C@H](CCCCN)NC(=O)[C@@H]1CCCN1C(=O)[C@H](CCCCN)NC(=O)[C@@H]1CCCN1C(=O)[C@H](CC(C)C)NC(=O)[C@H](Cc1ccc(O)cc1)NC(=O)[C@@H]1CCCN1C(=O)[C@@H]1CCCN1C(=O)[C@H](CCCCN)NC(=O)[C@@H]1CCCN1C(=O)[C@H](CCCCN)NC(=O)[C@H](CCCCN)NC(=O)[C@@H](N)CCCCN)C(=O)O [KKKPKPPYLPKPKPPPFFPPKLPPKI] here?
**A.** 21.3 µM (≈ 64 µg/mL)

**Q.** And the MIC [2]?
**A.** 21.3 µM (≈ 64 µg/mL)

**Q.** And the MIC [3]?
**A.** 21.3 µM (≈ 64 µg/mL)

**Q.** And the MIC [4]?
**A.** 21.3 µM (≈ 64 µg/mL)

**Q.** What about the MIC [5] of the same compound?
**A.** 21.3 µM (≈ 64 µg/mL)

**Q.** And the MIC [6]?
**A.** 21.3 µM (≈ 64 µg/mL)

**Q.** What about the MIC [7] of the same compound?
**A.** 21.3 µM (≈ 64 µg/mL)

**Q.** What about the MIC [8] of the same compound?
**A.** > 21.3 µM

**Q.** CC[C@H](C)[C@H](NC(=O)[C@H](CC(C)C)NC(=O)[C@H](C)NC(=O)[C@@H]1CCCN1C(=O)[C@H](CC(C)C)NC(=O)CNC(=O)[C@@H](NC(=O)[C@@H](NC(=O)[C@H](CC(C)C)NC(=O)[C@@H](NC(=O)[C@H](CCCCN)NC(=O)[C@H](CCCCN)NC(=O)[C@@H](NC(=O)[C@H](C)NC(=O)[C@@H](NC(=O)[C@@H](NC(=O)[C@H](CC(C)C)NC(=O)[C@H](CCCCN)NC(=O)[C@H](CCCCN)NC(=O)[C@@H](NC(=O)[C@H](Cc1ccccc1)NC(=O)[C@H](CO)NC(=O)[C@H](CCCCN)NC(=O)[C@H](Cc1c[nH]c2ccccc12)NC(=O)[C@@H](N)CCCCN)[C@@H](C)CC)[C@@H](C)O)[C@@H](C)O)C(C)C)C(C)C)[C@@H](C)O)[C@@H](C)O)C(=O)N[C@@H](CO)C(=O)O [KWKSFIKKLTTAVKKVLTTGLPALIS] was tested. Which MIC [9] did it give?
**A.** 22.3 µM (≈ 64 µg/mL)

**Q.** What about the MIC [10] of the same compound?
**A.** 1.04 µM (≈ 3 µg/mL)

**Q.** What about the MIC [11] of the same compound?
**A.** 0.696 µM (≈ 2 µg/mL)

**Q.** What about the MIC [12] of the same compound?
**A.** 1.39 µM (≈ 4 µg/mL)

**Q.** What about the MIC [13] of the same compound?
**A.** 22.3 µM (≈ 64 µg/mL)

**Q.** What about the MIC [14] of the same compound?
**A.** 0.696 µM (≈ 2 µg/mL)

**Q.** What about the MIC [15] of the same compound?
**A.** 11.1 µM (≈ 32 µg/mL)

**Q.** What about the MIC [16] of the same compound?
**A.** 2.79 µM (≈ 8 µg/mL)

**Q.** And the MIC [17]?
**A.** 0.696 µM (≈ 2 µg/mL)

**Q.** What about the MIC [18] of the same compound?
**A.** 1.39 µM (≈ 4 µg/mL)

**Q.** What about the MIC [19] of the same compound?
**A.** 2.09 µM (≈ 6 µg/mL)

**Q.** What about the MIC [20] of the same compound?
**A.** 0.696 µM (≈ 2 µg/mL)

**Q.** What about the MIC [21] of the same compound?
**A.** 0.696 µM (≈ 2 µg/mL)

**Q.** What about the MIC [22] of the same compound?
**A.** 2.79 µM (≈ 8 µg/mL)

**Q.** What about the MIC [23] of the same compound?
**A.** 1.39 µM (≈ 4 µg/mL)

**Q.** What about the MIC [24] of the same compound?
**A.** 11.1 µM (≈ 32 µg/mL)

**Q.** And the MIC [25]?
**A.** 5.57 µM (≈ 16 µg/mL)

**Q.** And the MIC [26]?
**A.** 0.696 µM (≈ 2 µg/mL)

**Q.** What about the MIC [27] of the same compound?
**A.** 2.79 µM and 5.57 µM

**Q.** And the MIC [28]?
**A.** 0.696 µM (≈ 2 µg/mL)

**Q.** And the MIC [29]?
**A.** 2.79 µM (≈ 8 µg/mL)

**Q.** What about the MIC [30] of the same compound?
**A.** 1.04 µM (≈ 3 µg/mL)

**Q.** And the MIC [31]?
**A.** 5.57 µM (≈ 16 µg/mL)

**Q.** What about the MIC [32] of the same compound?
**A.** 0.696 µM (≈ 2 µg/mL)

**Q.** And the MIC [8]?
**A.** 5.57 µM (≈ 16 µg/mL)

**Q.** Which results are given for CC[C@H](C)[C@H](NC(=O)[C@H](CCCCN)NC(=O)[C@H](CCCCN)NC(=O)[C@H](CC(C)C)NC(=O)[C@H](CCCN=C(N)N)NC(=O)[C@H](Cc1c[nH]c2ccccc12)NC(=O)[C@H](CCCN=C(N)N)NC(=O)[C@@H](NC(=O)[C@H](CCCCN)NC(=O)[C@H](Cc1c[nH]c2ccccc12)NC(=O)[C@H](CCCN=C(N)N)NC(=O)[C@H](CC(C)C)NC(=O)[C@H](CCCN=C(N)N)NC(=O)[C@H](CCCN=C(N)N)NC(=O)[C@H](Cc1ccccc1)NC(=O)[C@@H](N)CCCN=C(N)N)[C@@H](C)O)C(=O)N[C@H]1CSSC[C@@H](C(=O)N[C@H](C(N)=O)C(C)C)NC(=O)[C@H](C(C)C)NC(=O)[C@@H]2CSSC[C@H](NC(=O)[C@H](Cc3ccc(O)cc3)NC1=O)C(=O)N[C@@H](CCCN=C(N)N)C(=O)N[C@@H](CCCN=C(N)N)C(=O)N[C@@H](CCCN=C(N)N)C(=O)N[C@@H](Cc1ccccc1)C(=O)N2 [RFRRLRWKTRWRLKKICYCRRRFCVCV]?
**A.** MIC [9]: 1 µM (≈ 3.69 µg/mL); MIC [33]: 1 µM and 2.01 µM; MIC [11]: 2.01 µM (≈ 7.39 µg/mL); MIC [34]: 4.01 µM (≈ 14.8 µg/mL); MIC [35]: 2.01 µM (≈ 7.39 µg/mL); MIC [36]: 0.515 µM (≈ 1.9 µg/mL); MIC [37]: 1 µM (≈ 3.69 µg/mL); MIC [38]: 2.01 µM (≈ 7.39 µg/mL); MIC [39]: 2.01 µM (≈ 7.39 µg/mL); MIC [16]: 8.02 µM (≈ 29.6 µg/mL); MIC [40]: 4.01 µM (≈ 14.8 µg/mL); MIC [41]: 4.01 µM (≈ 14.8 µg/mL); MIC [42]: 4.01 µM (≈ 14.8 µg/mL); MIC [43]: 0.515 µM (≈ 1.9 µg/mL); MIC [44]: 4.01 µM (≈ 14.8 µg/mL); MIC [45]: 2.01 µM (≈ 7.39 µg/mL); MIC [46]: 2.01 µM (≈ 7.39 µg/mL); MIC [47]: 4.01 µM (≈ 14.8 µg/mL); MIC [8]: 4.01 µM (≈ 14.8 µg/mL)

**Q.** Which MIC [48] does the source give for CC[C@H](C)[C@H](NC(=O)[C@H](CCCCN)NC(=O)[C@H](CCCN=C(N)N)NC(=O)[C@@H](NC(=O)[C@@H](N)Cc1ccc(O)cc1)[C@@H](C)CC)C(=O)N[C@@H](CCCN=C(N)N)C(=O)N[C@@H](CCCN=C(N)N)C(=O)N[C@@H](Cc1ccccc1)C(=O)N[C@@H](Cc1ccccc1)C(=O)N[C@@H](CCCCN)C(=O)N[C@@H](CCCCN)C(=O)N[C@@H](CCCN=C(N)N)C(=O)N[C@@H](Cc1ccccc1)C(=O)N[C@@H](CCCCN)C(=O)N[C@@H](Cc1ccccc1)C(=O)N[C@@H](CCCN=C(N)N)C(=O)N[C@@H](CCCCN)C(=O)N[C@@H](CCCCN)C(N)=O [YIRKIRRFFKKRFKFRKK] here?
**A.** 25.1 µM (≈ 64 µg/mL)

**Q.** And the MIC [16]?
**A.** 25.1 µM (≈ 64 µg/mL)

**Q.** And the MIC [49]?
**A.** 12.6 µM (≈ 32 µg/mL)

**Q.** And the MIC [50]?
**A.** 12.6 µM (≈ 32 µg/mL)

**Q.** What about the MIC [51] of the same compound?
**A.** 6.28 µM (≈ 16 µg/mL)
